The values that follow come from patent US8349791B2, “Polypeptides that bind membrane proteins” (The Trustees of the University of Pennsylvania, priority 2006, dated 2013).

Peptide text beside a SMILES is read from it.

The target in experiment [1] is T1, α2 TM domain (Homo sapiens, UniProt P17301).
T1 construct: expressed in transfected cells; host or cells: E. coli MM39, pDNToxR-Duet
Put plainly: DN-TOXCAT heterodimerization. The format is cell-based. The conditions noted are these: coexpressed in bacterial membranes. How it is done: (§1) Both the affinity and specificity of the membrane protein-binding peptides for their targets when coexpressed in bacterial membranes were assessed with a DN-“TOXCAT” assay (FIGS. 3a-3c). In TOXCAT, a TM sequence of interest is fused to a ToxR protein (TM-ToxR) that binds to the ctx promoter as a dimer, which induces expression of chloramphenicol acetyltransferase (CAT) (W. P. Russ, D. M. Engelman, Proc. Natl. Acad. Sci. U.S.A. 96, 863 (1999); D. Langosch, B. Brosig, H. Kolmar, H. J. Fritz, J. Mol. Biol. 263, 525 (1996)). In the DN assay, the TM1-ToxR fusion protein is coexpressed with a second fusion protein (TM2-ToxR*) containing a nonfunctional mutant of the ToxR domain. TM-driven dimerization leads to a ToxR-ToxR* dimer that is unable to bind the ctx promoter or to induce CAT synthesis (FIG. 3a). The resulting decrease in CAT activity can be used to monitor the formation of a heterodimeric TM complex. In principle, this assay could be accomplished by adding an exogenous synthetic peptide (D. Gerber, N. Sal-Man, Y. Shai, J. Mol. Biol. 339, 243 (2004)); however, it is difficult to assure that different peptides will be similarly inserted into the Escherichia coli inner membrane.
(§2) For testing the specificity of the designed membrane protein-binding polypeptide sequences against the integrin TM domains, the designed sequences (anti-αIIb and anti-αV) were cloned into MCS1 of the Duet vector and the integrin TM domains into MCS2 of the Duet vector. In this configuration, the integrin TMs compete for the homodimers formed by the polypeptide sequences, with the decrease in CAT signal proportional to the extent of heterodimerization between a given integrin TM and polypeptide sequence relative to the homodimerization of the polypeptide sequence.
(§3) Single MM39 colonies containing pDNToxR-Duet constructs from selective plates were chosen, inoculated in 5 mL of LB medium containing 100 μg/mL ampicillin and grown to an OD600 of 0.2 at 37° C. with vigorous shaking. IPTG was added to the medium at a final concentration of 0.1 mM IPTG and grown to an OD600 of 0.7. Purification, immunoblotting, CAT ELISA and MalE complementation assays are essentially as described previously. Li, R., Gorelik, R., Nanda, V., Law, P. B., Lear, J. D., DeGrado, W. F. and Bennett, J. S. J. Biol. Chem. 2004, 279, 26666-26673 (2004). For immunoblotting, anti-MBP (NEB) was used for pccKAN (TOXCAT) constructs, whereas anti-myc (Covance) and anti-HA (Covance) were used for pDNToxR-Duet constructs. CAT ELISA results are an average of 3 independent replicates.

For experiment [2], the target named is T2, β3 TM domain (Homo sapiens, UniProt P05106).
T2 construct: expressed in transfected cells; host or cells: E. coli MM39, pDNToxR-Duet
The experiment in a line: DN-TOXCAT heterodimerization. The class given is cell-based. The conditions noted are these: coexpressed in bacterial membranes. On the procedure:
as §1, §2, §3

Experiment [3] addresses T3, β1 TM domain (Homo sapiens, UniProt P05556).
T3 construct: expressed in transfected cells; host or cells: E. coli MM39, pDNToxR-Duet
The experiment in a line: DN-TOXCAT heterodimerization. The class given is cell-based. The conditions noted are these: coexpressed in bacterial membranes. How it is done: as §1, §2, §3

Experiment [4] deals with T4, αIIbβ3 (Homo sapiens, UniProt P08514).
T4 construct: trapped from a suspension of gel filtered human platelets or CHO cells; endogenous in cells; host or cells: gel-filtered human platelets
Put plainly: FACS analysis of FITC-fibrinogen binding to platelets. The class given is cell-based. How it is done:
Freshly isolated platelets were added to 200 μg/ml FITC-conjugated fibrinogen, then incubated with 20 μM ADP or 2 μM of the anti-αIIb polypeptide in the presence or in the absence of 5 mM EDTA for 3 min at room temperature. After incubation, the platelets were fixed with 0.37% formalin in PBS buffer for 10 min, then washed and examined by FACS analysis as previously reported. See Ulmschneider M B et al. Proteins: Struct. Funct. Bioinformat. 59, 252-265 (2005). The polypeptide was added from a DMSO solution such that the final concentration of DMSO was no greater than 0.5%. All controls also had 0.5% DMSO in the buffer.

The target in experiment [5] is T5, αVβ3 (Homo sapiens, UniProt P06756).
T5 construct: Platelets express a second integrin with a β3 subunit, αVβ3; endogenous in cells; host or cells: gel-filtered human platelets
The experiment in a line: Force spectroscopy (laser tweezers), platelets and osteopontin-coated beads. The class given is cell-based. From the text:
Litvinov R I et al. Proc. Natl. Acad. Sci. USA. 99, 7426-31 (2002). Recombinant human OPN, prepared as previously described (Bennett J S et al. J. Biol. Chem. 272, 8137-40 (1997)) or purified human fibrinogen was covalently bound to 0.93 μm carboxylate-modified latex beads. Individual cells, trapped from a suspension of gel filtered human platelets or CHO cells, were manually attached to 5 μm diameter silica pedestals coated with polylysine. An OPN- or fibrinogen-coated bead, trapped by the laser light, was then brought into proximity of an immobilized cell, oscillated at 50 Hz, and then brought into repeated intermittent contact with the cell by micromanipulation. Data collection was initiated at the first contact between the bead and the cell. Rupture forces following repeated contacts were collected for periods of several seconds to one minute. Individual forces measured during each contact-detachment cycle were collected into 10 pN-wide bins. The number of events in each bin was then plotted against the average force for that bin after normalizing for the total number of interaction cycles. Thus, the percentage of events in a particular force range (bin) represents the probability of rupture events at that tension. Optical artifacts observed with or without trapped latex beads produce signals that appeared as forces below 10 pN. Therefore, rupture forces in this range were not considered when the data were analyzed. The polypeptide was added from a DMSO solution such that the final concentration of DMSO was no greater than 0.5%. All controls also had 0.5% DMSO in the buffer.
Platelets express a second integrin with a β3 subunit, αVβ3, which can bind the matrix protein osteopontin when platelets are stimulated by Mn^2+ or ADP. Bennett J S et al. J. Biol. Chem. 272, 8137-8140 (1997). To test the ability of anti-αIIb to discriminate between αIIbβ3 and αVβ3, the rupture force between platelets and osteopontin-coated beads in the presence and absence of anti-αIIb was measured.

Experiment [6] has as its target T6, FITC-αIIb-TM (Homo sapiens, UniProt P08514).
T6 construct: designated αIIb-TM, spanning residues Trp968 to Lys989 of αIIb was synthesized; made in house; host or cells: chemical peptide synthesis (no expression host)
The experiment in a line: FRET heterodimeric association in micelles. The format is binding. The settings on record: pH 7.5.
Experimental: FRET provided a more direct measure of the αIIb-TM/anti-αIIb heterodimeric association. […] Because the appropriate parameter for the association of polypeptides in micelles is generally the polypeptide concentration in the detergent micellar phase rather than the bulk polypeptide concentration, dissociation constants are often given in mole fraction units (polypeptide/detergent ratios).
Fluorescence resonance energy transfer (FRET) experiments were conducted on an ATF 105 spectrofluorometer (Aviv Biomedical, Inc., Lakewood, N.J.) using 0.3 cm path length cuvettes. […] Reference samples contain the same amount of FITC-αIIb-TM and non-labeled anti-αIIb to their corresponding FRET samples. Emission and excitation scans of the 1:1 mixture of FITC-αIIb-TM/coum-anti-αIIb were carried out to determine the optimal excitation and emission wavelengths. Excitation at 415 nm was selected. For the titration experiments in FIG. 2b, the emission at 500 nm was monitored. A slit width of 1.5 nm was used for both the excitation and emission. The signal and QC PMT high voltages were set at 737.3 V and 75.0 V, respectively. For the time-domain experiments, an experiment time of 600 seconds with 10 seconds of interval time and 10 seconds of average time was used. […] The fluorescence intensity values were used after correction of the inner filter effects using the standard method. […]

T5 sequence (P06756 891-1048 limits assumed): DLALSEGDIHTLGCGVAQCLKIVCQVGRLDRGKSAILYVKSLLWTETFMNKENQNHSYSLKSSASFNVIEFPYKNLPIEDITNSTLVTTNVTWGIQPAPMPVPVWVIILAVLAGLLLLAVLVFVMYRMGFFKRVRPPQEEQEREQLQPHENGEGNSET
T5 sequence (P06756 31-889 partner limits assumed): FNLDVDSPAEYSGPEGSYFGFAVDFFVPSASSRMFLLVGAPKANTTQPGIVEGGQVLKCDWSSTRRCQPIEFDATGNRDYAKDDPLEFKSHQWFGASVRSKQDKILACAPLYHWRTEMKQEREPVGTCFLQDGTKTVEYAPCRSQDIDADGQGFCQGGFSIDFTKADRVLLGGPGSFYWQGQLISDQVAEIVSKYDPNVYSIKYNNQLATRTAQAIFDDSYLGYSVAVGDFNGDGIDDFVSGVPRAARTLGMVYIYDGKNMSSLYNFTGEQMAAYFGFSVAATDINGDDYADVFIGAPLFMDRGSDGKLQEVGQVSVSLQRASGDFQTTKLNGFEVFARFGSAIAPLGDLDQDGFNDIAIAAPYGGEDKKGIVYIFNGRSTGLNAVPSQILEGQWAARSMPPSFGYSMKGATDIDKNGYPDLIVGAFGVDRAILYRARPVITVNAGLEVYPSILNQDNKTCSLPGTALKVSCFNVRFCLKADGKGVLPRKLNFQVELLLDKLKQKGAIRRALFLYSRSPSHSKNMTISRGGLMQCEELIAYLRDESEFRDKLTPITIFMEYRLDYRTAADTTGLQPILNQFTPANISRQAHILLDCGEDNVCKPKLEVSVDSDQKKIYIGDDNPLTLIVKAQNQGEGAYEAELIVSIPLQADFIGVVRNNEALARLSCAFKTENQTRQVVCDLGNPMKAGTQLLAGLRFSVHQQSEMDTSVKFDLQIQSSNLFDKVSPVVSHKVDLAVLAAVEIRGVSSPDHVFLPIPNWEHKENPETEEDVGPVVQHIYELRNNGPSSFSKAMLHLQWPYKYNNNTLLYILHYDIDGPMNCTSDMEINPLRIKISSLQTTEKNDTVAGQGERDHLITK
T5 sequence (P05106 27-788 partner): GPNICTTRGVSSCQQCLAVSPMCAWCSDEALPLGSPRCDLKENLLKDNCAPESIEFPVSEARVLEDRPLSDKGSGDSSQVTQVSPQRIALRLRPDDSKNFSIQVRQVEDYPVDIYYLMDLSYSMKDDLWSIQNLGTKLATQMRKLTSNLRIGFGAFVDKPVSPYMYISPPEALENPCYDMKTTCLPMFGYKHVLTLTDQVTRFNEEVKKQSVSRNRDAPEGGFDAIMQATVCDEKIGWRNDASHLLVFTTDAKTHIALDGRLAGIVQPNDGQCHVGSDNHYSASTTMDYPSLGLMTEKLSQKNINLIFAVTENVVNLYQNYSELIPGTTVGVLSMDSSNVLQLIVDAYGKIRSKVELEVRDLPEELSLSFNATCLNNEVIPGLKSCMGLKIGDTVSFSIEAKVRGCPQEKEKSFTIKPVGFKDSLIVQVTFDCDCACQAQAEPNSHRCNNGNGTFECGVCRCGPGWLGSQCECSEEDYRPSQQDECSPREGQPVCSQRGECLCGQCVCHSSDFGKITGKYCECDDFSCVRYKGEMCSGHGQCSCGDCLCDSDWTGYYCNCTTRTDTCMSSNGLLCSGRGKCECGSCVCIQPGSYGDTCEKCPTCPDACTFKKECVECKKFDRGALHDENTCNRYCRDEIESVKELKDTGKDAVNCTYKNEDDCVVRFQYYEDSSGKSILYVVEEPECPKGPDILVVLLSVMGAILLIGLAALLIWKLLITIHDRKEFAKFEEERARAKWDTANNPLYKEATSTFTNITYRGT
T4 sequence (P08514 891-1039 limits assumed): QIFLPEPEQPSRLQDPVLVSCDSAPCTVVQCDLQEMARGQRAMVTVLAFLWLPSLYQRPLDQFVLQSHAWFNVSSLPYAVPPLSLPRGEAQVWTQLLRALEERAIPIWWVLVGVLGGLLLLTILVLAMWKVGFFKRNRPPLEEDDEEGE
T4 sequence (P08514 32-887 partner limits assumed): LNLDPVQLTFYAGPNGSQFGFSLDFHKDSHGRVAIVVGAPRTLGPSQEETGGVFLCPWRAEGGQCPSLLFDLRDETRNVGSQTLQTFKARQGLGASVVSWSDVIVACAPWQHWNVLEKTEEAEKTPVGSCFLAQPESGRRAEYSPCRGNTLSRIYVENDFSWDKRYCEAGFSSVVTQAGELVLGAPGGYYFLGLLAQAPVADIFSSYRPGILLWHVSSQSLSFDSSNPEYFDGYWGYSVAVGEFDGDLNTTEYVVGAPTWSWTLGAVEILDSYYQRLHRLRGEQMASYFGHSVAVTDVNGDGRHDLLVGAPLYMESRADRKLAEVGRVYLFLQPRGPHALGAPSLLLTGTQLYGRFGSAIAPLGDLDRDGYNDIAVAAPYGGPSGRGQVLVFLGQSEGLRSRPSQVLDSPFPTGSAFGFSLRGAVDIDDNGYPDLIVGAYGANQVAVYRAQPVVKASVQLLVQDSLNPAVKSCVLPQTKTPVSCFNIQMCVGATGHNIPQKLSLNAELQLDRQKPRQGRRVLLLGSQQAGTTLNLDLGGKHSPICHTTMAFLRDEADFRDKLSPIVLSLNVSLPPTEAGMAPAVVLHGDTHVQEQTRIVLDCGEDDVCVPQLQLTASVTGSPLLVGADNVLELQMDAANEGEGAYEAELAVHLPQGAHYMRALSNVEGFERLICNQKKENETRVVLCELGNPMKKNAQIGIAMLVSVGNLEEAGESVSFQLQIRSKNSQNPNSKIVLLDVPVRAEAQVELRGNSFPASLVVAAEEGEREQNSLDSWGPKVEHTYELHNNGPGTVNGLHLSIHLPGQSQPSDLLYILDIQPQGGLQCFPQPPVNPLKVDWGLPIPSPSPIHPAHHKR
T4 sequence (P05106 27-788 partner): as the sequence (P05106 27-788 partner) above
T6 sequence (P08514 999-1020 limits assumed): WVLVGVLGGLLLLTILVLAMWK
T2 sequence (P05106 with tags, fused parts or gaps limits assumed): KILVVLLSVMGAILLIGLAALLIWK
T1 sequence (P17301 with tags, fused parts or gaps limits assumed): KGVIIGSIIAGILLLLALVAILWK
T3 sequence (P05556 with tags, fused parts or gaps limits assumed): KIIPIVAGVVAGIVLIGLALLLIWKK

For `CC[C@H](C)[C@H](NC(=O)[C@H](Cc1ccccc1)NC(=O)[C@H](Cc1ccccc1)NC(=O)[C@@H]1CCCN1C(=O)[C@H](CC(C)C)NC(=O)[C@H](CC(C)C)NC(=O)[C@H](CCSC)NC(=O)[C@@H](NC(=O)[C@H](Cc1ccc(O)cc1)NC(=O)[C@H](C)NC(=O)[C@H](CCCCN)NC(=O)[C@@H](N)CCCCN)C(C)C)C(=O)NCC(=O)N[C@@H](CC(C)C)C(=O)N[C@@H](CC(C)C)C(=O)N[C@@H](CC(C)C)C(=O)NCC(=O)N[C@@H](CC(C)C)C(=O)N[C@H](C(=O)N[C@@H](Cc1ccccc1)C(=O)NCC(=O)NCC(=O)N[C@@H](C)C(=O)N[C@@H](Cc1ccccc1)C(=O)N[C@@H](Cc1c[nH]c2ccccc12)C(=O)NCC(=O)N1CCC[C@H]1C(=O)N[C@@H](C)C(=O)N[C@@H](CCCNC(=N)N)C(=O)N[C@@H](Cc1c[nH]cn1)C(=O)N[C@@H](CC(C)C)C(=O)N[C@@H](CCCCN)C(=O)N[C@@H](CCCCN)C(N)=O)[C@@H](C)CC` [anti-αIIb] (H-KKAYVMLLPFFIGLLLGLIFGGAFWGPARHLKK-NH2; N-terminus assumed), the “interaction with α2 TM domain” value in experiment [1] is reported as “failed to significantly interact”. The “interaction with β3 TM domain” value in experiment [2] is recorded as “failed to significantly interact”. The “interaction with β1 TM domain” value in experiment [3] is on record as “failed to significantly interact”. The “FITC-labeled fibrinogen bound by platelets” value in experiment [4] (2.0 μM polypeptide, compared with 20 μM ADP) is “comparable amounts”. In addition, in experiment [4] (5 mM EDTA), the “induced fibrinogen binding in the presence of EDTA” value was “prevented”. The “rupture force, platelets and osteopontin-coated beads” value in experiment [5] (0.5 μM polypeptide) is given as “No peak of rupture force was observed”. Moreover, in experiment [6], the “apparent Kdiss for the αIIb-TM/anti-αIIb interaction” value is on record as 3.2±0.5×10^−4 mole fraction units.
In the case of AYVFILLSFILGTLLGFLVMFWA [anti-αV], in experiment [5], the “peak of rupture force between platelets and osteopontin-coated beads” value is 40 pN; the “rupture force peak in the presence of αvβ3 antagonist XJ735” value is given as “not present”.
